Here are results for one compound from US20220288156A1, “TREATMENT” (QUEEN MARY UNIVERSITY OF LONDON, priority 2019, published 2022).

The test system of test [1] is mouse cardiac endothelial cells. The test is described as follows: RNA-Seq of cardiac endothelial cells treated with ldCil. The test is classed as cell-based.
The subject of test [2] is AngII-stimulated mouse cardiomyocytes. Put plainly: RNA-Seq of AngII-stimulated cardiomyocytes treated with ldCil, comparison with human heart data. The test is classed as cell-based. As for the experimental part: Primary mouse cardiomyocytes were isolated from the whole hearts of 1-3-day old C57/BL6 wild-type mice. Hearts were dissected and removed from the thoracic cavity, mechanically minced with scissors and digested in cardiomyocyte isolation enzyme 1 (200 μl per heart) and cardiomyocyte isolation enzyme 2 (10 μl per heart) (Pierce primary cardiomyocyte isolation kit, Thermo Scientific). Digested hearts were then homogenised by gently pipetting up to 30 times with a 1 ml pipette, and the resulting single cell suspension added to complete DMEM solution (DMEM, 10% FBS, 1% Penicillin Streptomycin stock solution). After combination of all cell suspensions, the total number of viable cells were counted, and plated at approximately 1 million cells per single well of a 6 well plate. The following day, wells were washed with PBS (without calcium and magnesium), and complete cardiomyocyte growth medium added. Complete cardiomyocyte medium thereafter was replaced every other day.
Following 5 days culture at 37° C., 5% CO2, primary mouse cardiomyocytes were serum starved for 24 h in a 0.5 FBS-DMEM media. On day 6 cells were washed and refed with complete cardiomyocyte growth medium plus or minus 1 μM angiotensin II (Alfa Aesar), and this was repeated on day 7. In tandem to angiotensin II treatment, cells were either treated with vehicle or low dose Cilengitide (20 nM) (Bachem). On 8-day cardiomyocytes were lysed for RNA analysis.
Medium was removed and cells were washed 3 times in PBS. 350 μl RLT lysis buffer (Qiagen) (plus 1:100 beta-mercaptoethanol) was added to each well to disrupt and lyse the cells. Cell lysate samples were then combined with an equal volume of 70% ethanol, before RNA was extracted according to the manufacturer's instructions, before being stored at −80° C. until required. For whole hearts, less than 100 mg of tissue was lysed with 700 μl RLT lysis buffer (Qiagen) (supplemented 1:100 beta-mercaptoethanol) in a QIAshredder (Qiagen) for 10 min. Tissues were then processed as above with the RNeasy mini kit.
RNA-Seq was performed by Barts and the London Genome Centre on the Illumina NextSeq 500 platform, generating on average ˜15-17 million paired-end reads of 76 bp in length per sample. After quality check using FastQC, raw reads were mapped to the mouse genome (mm10, Genome Reference Consortium GRCm38) in the strand-specific mode using HISAT2 (65). Number of uniquely aligned reads (q>10) to the exonic region of each gene were counted using HTSeq (66) based on the GenCode annotation version M16 (Ensembl v91). Only genes that achieved at least one read count per million reads (cpm) in at least four samples (i.e., number of samples per group) were kept. Conditional quantile normalisation (cqn) was then performed accounting for gene length and GC content, and a log2 transformed reads per kilobase of transcript per million mapped reads RPKM expression matrix was subsequently generated. Differential expression analysis was performed using the ‘limma’ R package (67). Gene-set enrichment analysis (GSEA) was performed using the GSEA software (68) to identify dysregulated canonical pathways curated in the Molecular Signatures Database (MSigDB-C2-CP v6.2) (FDR q<0.1). RNA-Seq data have been deposited in Gene Expression Omnibus (GEO) under the accession number GSE127854.
The GSE57338 microarray dataset of a total of 313 individuals which included 95 ischemic patients, 82 dilated cardiomyopathy patients, and 136 individuals with non-failing hearts, was downloaded from GEO. Differential expression analysis was performed using the ‘limma’ R package comparing ischemic vs non-failing and dilated vs non-failing. GSEA was performed using the GSEA software (PMID:16199517) to identify the dysregulated canonical pathways as described above. The overlap of differentially expressed gene and pathways (p<0.05) was then examined in relation to the mouse cardiomyocyte data. […]

[3] abbreviates: AngII vs AngII+ldCil, human failing vs non-failing.
[4] abbreviates: human idiopathic dilated cardiomyopathy vs non-failing.
The mark [5] stands for this setting: human ischemic heart vs non-failing.

As to `CC(C)[C@H]1C(=O)N[C@@H](CCCN=C(N)N)C(=O)NCC(=O)N[C@@H](CC(=O)O)C(=O)N[C@H](Cc2ccccc2)C(=O)N1C` [Cilengitide, c(f*VRGD)], the “concordantly differentially expressed genes” value in test [1] (24 h and 48 h ldCil treatment vs control) is reported as 54 genes. Moreover, the “expression of proangiogenic or cardioprotective regulators (Csf2rb, Eln, Nov, CCL7, Mt2, Socs2, Fgf23, Slc30a1, Col6a3, Mt1, Ggt5, Adam8)” value in test [1] (both 24 h and 48 h) was “differentially upregulated”. Further, the “gene sets involved in mitosis, DNA repair and cell cycle (enrichment analysis)” value in test [1] (both timepoints) is recorded as “significant increases”. The “transcriptomic alterations induced by AngII” value in test [2] (1 μM AngII plus ldCil 20 nM) is “back to control treated cardiomyocyte levels”. Besides, in test [2] (AngII plus ldCil), the “PI3K and Akt signalling pathways downregulated by AngII” value is given as “fold change restoration of both these pathways are most highly expressed”; the “TCA and oxidative stress pathways increased by AngII” value is “restored”. For the same compound, in test [2] (setting [3]), the “downregulated genes concordant with human failing heart restored to non-failing human heart levels” value amounted to 13 genes and the “upregulated genes concordant with human failing heart restored to non-failing human heart levels” value is reported as 8 genes. Also, in test [2] (AngII+ldCil compared to control, FDR q>0.1), the “AngII-induced differential expression of pathways (GSEA)” value was “no longer significant”. Further, in test [2] (setting [4]), the “concordantly downregulated pathways restored to non-failing human heart profiles” value was 8 pathways and the “concordantly upregulated pathways restored to non-failing human heart profiles” value is reported as 4 pathways. In test [2] (setting [5]), the “concordant downregulated pathways restored” value came out at 5 pathways, the concordant pathways restored was found to be 6 pathways and the “concordant upregulated pathways restored” value turned out to be 1 pathways.
